Molecular target: LRRK2(G2019S mutation, GST-LRRK2 (amino acids 970-2527)) (Homo sapiens (Human), UniProt Q5S007, G2019S)
Test: LRRK2 Km ATP LanthaScreen Assay
Assay type: biochemical
Details: Km ATP LanthaScreen TR-FRET; G2019S LRRK2, LRRKtide substrate; mean IC50 of several tests
Excerpt: Unless otherwise noted, all LRRK2 IC50 data presented in tables refers to the LRRK2 Km ATP LanthaScreen™ Assay that is described in the Biological Assay section.
The data presented for the Km ATP LanthaScreen™ Assay represents mean IC50 values based on several test results and may have reasonable deviations depending on the specific conditions and reagents used. Reagents for the LRRK2 Km ATP LanthaScreen™ Assay were purchased from Life Technologies Corporation.
LRRK2 Km ATP LanthaScreen™ Assay
• a) 400 nl of a 1:2.15 serial dilution of test compound (98 μM top assay concentration) is spotted via Labcyte Echo to certain wells in a 384 well black, untreated plate. Control wells contain 400 nl of either DMSO or 400 nl of a known inhibitor in DMSO. • b) 10 μl of a 2.5 nM LRRK2(G2019S mutation, GST-LRRK2 (amino acids 970-2527)) enzyme solution in 1× assay buffer (50 mM Tris pH 8.5, 10 mM MgCl2, 0.01% Brij-35, 1mM EGTA, 2 mM DTT, 0.05 mM NaVO4) is added to all wells. • c) A 30 minute room temperature incubation is followed by addition of 10 μl of 800 nM fluorescein labeled LRRKtide peptide substrate and 186 μM ATP solution in 1× assay buffer to all wells. • d) After a 60 minute room temperature incubation, 20 μl of TR-FRET Dilution Buffer (Invitrogen PV3756B) containing 4 nM Tb-labeled anti-phospho LRRKtide antibody and 20 mM EDTA is added to all wells. • e) Plates are incubated at room temperature for 1 hour and read on an Envision™ multi-mode plate reader with LanthaScreen™ settings. Results are analysed using Assay Data Analyzer.

Sequence of LRRK2(G2019S mutation, GST-LRRK2 (amino acids 970-2527)) (Q5S007 970-2527 G2019S): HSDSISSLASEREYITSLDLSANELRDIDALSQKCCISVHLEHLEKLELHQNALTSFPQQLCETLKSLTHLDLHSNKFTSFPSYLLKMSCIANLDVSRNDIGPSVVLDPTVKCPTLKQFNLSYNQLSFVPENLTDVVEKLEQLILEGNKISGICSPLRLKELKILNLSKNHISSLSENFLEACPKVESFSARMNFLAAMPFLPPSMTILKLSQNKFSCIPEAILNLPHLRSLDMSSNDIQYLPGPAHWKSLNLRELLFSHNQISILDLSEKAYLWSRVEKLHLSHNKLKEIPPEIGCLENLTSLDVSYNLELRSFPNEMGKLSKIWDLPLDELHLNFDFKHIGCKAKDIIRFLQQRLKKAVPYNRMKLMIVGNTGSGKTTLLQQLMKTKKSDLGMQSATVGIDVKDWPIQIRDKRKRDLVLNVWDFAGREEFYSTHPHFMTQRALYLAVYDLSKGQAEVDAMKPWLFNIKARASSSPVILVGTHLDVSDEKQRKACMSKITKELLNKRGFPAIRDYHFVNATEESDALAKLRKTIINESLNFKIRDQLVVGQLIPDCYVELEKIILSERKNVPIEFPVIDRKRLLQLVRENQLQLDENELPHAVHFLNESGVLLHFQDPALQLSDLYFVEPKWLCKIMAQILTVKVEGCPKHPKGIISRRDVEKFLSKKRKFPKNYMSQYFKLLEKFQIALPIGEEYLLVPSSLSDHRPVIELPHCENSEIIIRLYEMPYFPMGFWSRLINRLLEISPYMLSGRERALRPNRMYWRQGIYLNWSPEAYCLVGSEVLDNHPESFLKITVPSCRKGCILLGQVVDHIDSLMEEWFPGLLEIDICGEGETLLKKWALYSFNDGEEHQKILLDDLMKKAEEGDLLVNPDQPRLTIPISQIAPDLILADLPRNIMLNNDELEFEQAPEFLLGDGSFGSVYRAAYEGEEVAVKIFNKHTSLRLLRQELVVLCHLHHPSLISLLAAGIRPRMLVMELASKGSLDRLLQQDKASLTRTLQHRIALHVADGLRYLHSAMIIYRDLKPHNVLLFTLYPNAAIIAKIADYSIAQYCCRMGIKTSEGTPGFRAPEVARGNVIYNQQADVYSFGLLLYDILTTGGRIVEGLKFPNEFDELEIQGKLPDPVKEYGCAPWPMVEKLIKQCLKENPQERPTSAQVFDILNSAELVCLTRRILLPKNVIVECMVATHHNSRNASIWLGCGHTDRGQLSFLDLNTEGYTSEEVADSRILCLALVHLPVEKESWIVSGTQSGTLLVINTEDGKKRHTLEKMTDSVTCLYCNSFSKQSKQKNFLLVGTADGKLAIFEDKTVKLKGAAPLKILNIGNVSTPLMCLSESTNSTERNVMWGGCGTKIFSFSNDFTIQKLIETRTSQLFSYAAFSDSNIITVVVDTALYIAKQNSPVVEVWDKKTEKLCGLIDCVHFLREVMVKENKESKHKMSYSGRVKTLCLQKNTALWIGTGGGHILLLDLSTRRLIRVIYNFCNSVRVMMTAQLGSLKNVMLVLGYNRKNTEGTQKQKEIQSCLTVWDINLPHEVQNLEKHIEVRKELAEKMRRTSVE

| SMILES | IC50 [nM] |
| --- | --- |
| CC(C)Oc1cc(F)c2[nH]nc(-c3ccnc(N4CCOCC4)c3)c2c1 [Example 4] | 12 |
| Fc1cc(-c2cnccn2)cc2c(-c3ccnc(N4CCOCC4)c3)n[nH]c12 [Example 6] | 58 |
| Cc1cc(-c2cnn(C)c2)cc2c(-c3ccnc(N4CCOCC4)c3)n[nH]c12 [Example 7] | 199 |
| Cn1cc(-c2cc(Cl)c3[nH]nc(-c4ccnc(N5CCOCC5)c4)c3c2)cn1 [Example 8] | 309 |
| Cn1cc(-c2cc(F)c3[nH]nc(-c4ccnc(N5CC(F)C5)c4)c3c2)cn1 [Example 10] | 8.2 |
| Cc1cc(-c2cnn(C)c2)cc2c(-c3ccnc(N4CCN(S(C)(=O)=O)CC4)c3)n[nH]c12 [Example 11] | 218 |
| Cc1cc(-c2cnn(C)c2)cc2c(-c3ccnc(N4CC[C@@H](F)C4)c3)n[nH]c12 [Example 12] | 380 |

— US9809568B2, “Compounds inhibiting leucine-rich repeat kinase enzyme activity” (Merck Sharp & Dohme Corp., priority 2013, dated 2017)
